{
  "source": "ChEMBL document CHEMBL1201862",
  "about": "“PubChem BioAssay data set” (2004)",
  "key": {"[1]": {"assay": "reduction of Shn3 3'UTR-driven luciferase in osteoblasts – cell-based, Clone20 osteoblasts, firefly luciferase, cherry-picked, dose response (AID 624132)", "format": "functional"}, "Cytochrome P450 2C9": {"molecular_target": "Cytochrome P450 2C9 (Homo sapiens, UniProt P11712)"}, "[2]": {"assay": "non-specific 3'UTR reporter inhibition in Clone20-Shn3RL – cell-based, Renilla luciferase, cherry-picked, counter-screen for Shn3 inhibitor project, dose response (AID 624133)", "format": "functional"}, "INS1": {"system": "INS1", "assay": "INS-1E survival protection against cytokine death – cell-based, luminescence, retest, dose response (AID 449756);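 note: cell death triggered by IL-1 beta plus TNF-alpha plus IFN-gamma mixture; protective hits raise ATP signal compared with cytokine alone wells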", "format": "functional", "details": "Rattus norvegicus"}, "[3]": {"assay": "Shn3 3'UTR reporter signal decrease – cell-based, Clone20 osteoblasts, firefly luciferase, cherry-pick, set 2, Schnurri-3 inhibitor project, dose response (AID 720490);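 note: actives lower the luminescence signal as inhibitors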", "format": "functional"}, "Cytochrome P450 2D6": {"molecular_target": "Cytochrome P450 2D6 (Homo sapiens, UniProt P10635)"}, "[4]": {"assay": "loss of viability in HepG2 cells – cell-based, CellTiter-Glo, cherry-picked, cytotoxicity control for Shn3 inhibitor project, dose response (AID 624134)", "format": "functional"}, "cells [5]": {"assay": "cells", "details": "HEK293"}, "cells [6]": {"assay": "cells", "details": "A549"}, "[7]": {"assay": "viability loss in HepG2 liver cells – cell-based, ATP luminescence, cherry-pick, set 6, cytotoxicity control, dose response (AID 1053125)", "format": "functional"}, "[8]": {"assay": "fluconazole-exposed Candida albicans growth modulators – fluorescence, retest, confirmation (AID 2467)", "format": "functional, cell-based"}, "[9]": {"assay": "NIH-3T3 fibroblast cytotoxicity, dose response, cytotoxicity control, cell-based, fluorescence, Alamar Blue, secondary assay (AID 2327);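 note: NIH-3T3 mouse fibroblasts cultured with fluconazole at 8 µg/mL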", "format": "functional"}, "[10]": {"molecular_target": "T1, Heat shock factor protein 1 (Mus musculus, UniProt P38532)", "T1 sequence (P38532 whole entry)": "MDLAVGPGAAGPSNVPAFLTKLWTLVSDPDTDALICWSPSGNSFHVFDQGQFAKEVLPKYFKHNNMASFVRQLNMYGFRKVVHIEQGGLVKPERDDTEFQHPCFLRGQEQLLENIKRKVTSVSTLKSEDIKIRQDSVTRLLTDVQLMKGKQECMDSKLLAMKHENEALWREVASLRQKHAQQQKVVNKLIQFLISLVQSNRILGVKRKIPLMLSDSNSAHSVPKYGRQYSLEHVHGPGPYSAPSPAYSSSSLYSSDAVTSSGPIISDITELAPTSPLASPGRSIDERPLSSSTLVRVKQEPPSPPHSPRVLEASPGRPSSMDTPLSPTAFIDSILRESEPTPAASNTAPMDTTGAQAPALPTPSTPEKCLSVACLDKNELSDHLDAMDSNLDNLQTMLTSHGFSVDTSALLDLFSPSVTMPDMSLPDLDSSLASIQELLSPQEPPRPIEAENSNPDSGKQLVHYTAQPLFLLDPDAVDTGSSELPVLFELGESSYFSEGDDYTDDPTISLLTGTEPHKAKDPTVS", "assay": "enhancement of HSF1-driven luciferase signal – cell-based, NIH3T3, luminescence, dose retest, confirmation (AID 435004);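 note: stress induced by proteasome inhibitor MG132 added 30 min after compound; actives raise luminescence as potentiators of the MG132 stress response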", "format": "functional"}, "[11]": {"assay": "viability of uninfected HEp-2 cells – cell-based, HTS, cytotoxicity control for RSV inhibitor project, dose response (AID 2410)", "format": "functional", "details": "human respiratory syncytial virus"}, "Albumin": {"molecular_target": "Albumin (Bos taurus, UniProt P02769)", "assay": "Counterscreen for inhibitors of T-cell receptor (TCR)-CD3 interaction: Fluorescence-based biochemical high throughput dose response assay to identify inhibitors of T-cell receptor (TCR)-CD3 interaction using a TAMRA-labeled BSA probe.", "format": "functional"}, "HEK293 [12]": {"system": "HEK293", "assay": "NOD2 signaling inhibitors in MDP-stimulated cells, cell-based, uHTS, luminescence (AID 2001)", "format": "functional", "details": "Homo sapiens"}, "HEK293 [13]": {"system": "HEK293", "assay": "inhibition of NOD1-driven NF-kB reporter – cell-based, luminescence, uHTS, primary screen (AID 1578)", "format": "functional", "details": "Homo sapiens"}, "HEK293 [14]": {"system": "HEK293", "assay": "cells", "format": "functional, cell-based", "details": "Homo sapiens"}, "[15]": {"assay": "viability loss in THP-1 monocytes – THP-1 cells, cytotoxicity control for Vif-APOBEC3G degradation inhibitor project, dose response (AID 1117359)", "format": "functional", "details": "THP-1"}, "[16]": {"molecular_target": "COUP transcription factor 2 (Homo sapiens, UniProt P24468)", "assay": "Luminescence-based cell-based high throughput dose response assay to identify inhibitors of COUP-TFII (NR2F2).", "format": "functional"}, "[17]": {"assay": "Luminescence Cell-Based Dose Retest to Confirm Inhibitors of Cancer Stem Cells. [Related pubchem assays (depositor defined):AID2717, AID2721]", "format": "functional", "details": "Homo sapiens"}, "HEK293 [18]": {"system": "HEK293", "assay": "cells", "format": "functional, cell-based", "details": "Homo sapiens", "remark": "listed apart in the source"}, "Caspase-6": {"molecular_target": "T2, Caspase-6 (Homo sapiens, UniProt P55212)", "T2 sequence (P55212 whole entry)": "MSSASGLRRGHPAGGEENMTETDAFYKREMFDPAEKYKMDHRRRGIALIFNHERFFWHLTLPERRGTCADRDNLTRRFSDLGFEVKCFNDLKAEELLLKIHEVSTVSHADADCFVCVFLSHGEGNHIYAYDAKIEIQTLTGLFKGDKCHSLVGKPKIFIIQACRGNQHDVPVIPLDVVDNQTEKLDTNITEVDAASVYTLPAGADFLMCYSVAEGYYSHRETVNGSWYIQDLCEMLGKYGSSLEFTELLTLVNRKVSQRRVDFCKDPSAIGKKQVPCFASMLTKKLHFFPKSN", "assay": "inhibition of CASP6 peptide cleavage – biochemical, VEID-R110 fluorescence, cherry-pick, dose response (AID 720632)"}, "H9c2": {"system": "H9c2", "assay": "cells", "format": "functional, cell-based", "details": "Rattus norvegicus, H9c2, Myocardium"}, "[19]": {"molecular_target": "Histone-lysine N-methyltransferase NSD2 (Homo sapiens, UniProt O96028)", "format": "biochemical"}, "[20]": {"molecular_target": "DNA (cytosine-5)-methyltransferase 1 (Homo sapiens, UniProt P26358)", "assay": "inhibition of DNA methylation by DNMT1 – biochemical, fluorescent molecular beacon, confirmation (AID 602386)", "format": "functional"}, "[21]": {"molecular_target": "Glucose-6-phosphate 1-dehydrogenase (Homo sapiens, UniProt P11413)", "assay": "inhibition of Homo sapiens G6PD, dose series – biochemical, fluorescence, selectivity assay for P. falciparum G6PD inhibitor project, dose response (AID 504792)", "format": "functional"}, "Major prion protein": {"molecular_target": "Major prion protein (Homo sapiens, UniProt P04156)", "format": "functional, cell-based"}, "cells [22]": {"assay": "cells"}},
  "note": "Activity calls are given as the source filed them.",
  "data": [
    {"compound": "Cc1ccc2c(c1)nnn2C1CCN(S(=O)(=O)c2ccc(C(=O)N3C(C)CCCC3C)cc2)CC1", "note": "(stereo not given)", "values": [
      {"measurement": "AC50", "setting": "[1]", "result": "0.695 µM (active)"},
      {"measurement": "AC50", "setting": "Cytochrome P450 2C9", "result": "15.8 µM (inconclusive)"},
      {"measurement": "AC50", "setting": "[2]", "result": "11.4 µM (active)"},
      {"measurement": "AC50", "setting": "INS1", "result": "4.53 µM (active)"},
      {"measurement": "AC50", "setting": "[3]", "result": "1.29 µM (active)"},
      {"measurement": "AC50", "setting": "Cytochrome P450 2D6", "result": "0.158 µM (inconclusive)"},
      {"measurement": "AC50", "setting": "[4]", "result": "60.8 µM (active)"}
    ]},
    {"compound": "N#CC(C#N)=C1C=CC=CN1/C(=C\\c1ccccc1)C(=O)c1cccs1", "values": [
      {"measurement": "AC50", "setting": "cells [5]", "result": "22.1 µM (active)"},
      {"measurement": "AC50", "setting": "cells [6]", "result": "> 52 µM (inactive)"},
      {"measurement": "AC50", "setting": "[7]", "result": "49.7 µM (active)"},
      {"measurement": "EC50", "setting": "[8]", "result": "> 38 µM (not active)"},
      {"measurement": "EC50", "setting": "[9]", "result": "14.3 µM (active)"},
      {"measurement": "EC50", "setting": "[10]", "result": "4.04 µM (active)"},
      {"measurement": "CC50", "setting": "[11]", "result": "21.6 µM (active)"}
    ]},
    {"compound": "CNC(=S)NNC(=O)c1cccn(Cc2ccc(Cl)cc2Cl)c1=O", "values": [
      {"measurement": "IC50", "setting": "Albumin", "result": "> 94.1 µM (inactive)"}
    ]},
    {"compound": "Fc1ccc2[nH]c3c(N4CCc5ccccc5C4)ncnc3c2c1", "values": [
      {"measurement": "AC50", "setting": "[1]", "result": "0.466 µM (active)"},
      {"measurement": "IC50", "setting": "HEK293 [12]", "result": "1.27 µM (active)"},
      {"measurement": "EC50", "setting": "HEK293 [13]", "result": "3.14 µM (active)"},
      {"measurement": "IC50", "setting": "HEK293 [14]", "result": "12.4 µM (active)"},
      {"measurement": "AC50", "setting": "[2]", "result": "24.1 µM (active)"},
      {"measurement": "CC50", "setting": "[15]", "result": "> 40 µM (active)"},
      {"measurement": "IC50", "setting": "[16]", "result": "5.24 µM (active)"},
      {"measurement": "AC50", "setting": "[17]", "result": "13.8 µM (active)"},
      {"measurement": "AC50", "setting": "[4]", "result": "3.91 µM (active)"},
      {"measurement": "IC50", "setting": "HEK293 [18]", "result": "1.51 µM (active)"}
    ]},
    {"compound": "CCC(CO)NC(=O)C1C=C2c3cccc4[nH]cc(c34)CC2N(C)C1", "note": "(stereo not given)", "values": [
      {"measurement": "AC50", "setting": "Caspase-6", "result": "27.3 µM (active)"}
    ]},
    {"compound": "Nc1ncc(-c2ccccc2)n1CC1CCCO1", "note": "(stereo not given)", "values": [
      {"measurement": "IC50", "setting": "H9c2", "result": "> 79 µM (inactive)"},
      {"measurement": "AC50", "setting": "Cytochrome P450 2C9", "result": "14.1 µM (inconclusive)"},
      {"measurement": "AC50", "setting": "[19]", "result": "> 20 µM (inactive)"}
    ]},
    {"compound": "COC1=C(N)C(=O)c2nc(C)ccc2C1=O", "values": [
      {"measurement": "IC50", "setting": "[20]", "result": "4.94 µM (active)"},
      {"measurement": "IC50", "setting": "[21]", "result": "59.6 µM (inactive)"},
      {"measurement": "CC50", "setting": "[15]", "result": "20.8 µM (active)"},
      {"measurement": "AC50", "setting": "[19]", "result": "0.61 µM (active)"}
    ]},
    {"compound": "CCc1nonc1NC(=O)c1oc2cc(Br)ccc2c1C", "values": [
      {"measurement": "IC50", "setting": "Major prion protein", "result": "3.55 µM (active)"},
      {"measurement": "IC50", "setting": "cells [22]", "result": "> 138 µM (inactive)"}
    ]}
  ]
}
